Results from patent US8012991B2, “Pyridoindolone derivatives substituted in the 3-position by a phenyl, their preparation and their application in therapeutics” (Sanofi-Aventis, priority 2002, dated 2011).

melting point | Structure (SMILES)
210 °C | Cc1cc(C)cc(-c2cc3c4cc(C)ccc4n(C)c3n(C)c2=O)c1 [Compound 1, 3-(3,5-Dimethylphenyl)-1,6,9-trimethyl-1,9-dihydro-2H-pyrido[2,3-b]indol-2-one]
170 °C | Cc1ccc2c(c1)c1cc(-c3ccc(Cl)cc3Cl)c(=O)n(C)c1n2C [Compound 2, 3-(2,4-Dichlorophenyl)-1,6,9-trimethyl-1,9-dihydro-2H-pyrido[2,3-b]indol-2-one]
130 °C | COc1ccc2c(c1)c1cc(-c3ccc(Cl)cc3Cl)c(=O)n(C)c1n2C [Compound 21, 3-(2,4-Dichlorophenyl)-6-methoxy-1,9-dimethyl-1,9-dihydro-2H-pyrido[2,3-b]indol-2-one]
